Experiments:
[1] = biological target: T1, ATP-dependent translocase ABCB1 (Homo sapiens, UniProt P08183); experiment: TP_TRANSPORTER: transepithelial transport of digoxin (apical to basal) (Digoxin: 20-30uM) in MDR1-expressing LLC-GA5-COL150 cell; assay type: functional, cell-based; conditions: pig
[2] = biological target: T1, ATP-dependent translocase ABCB1; experiment: TP_TRANSPORTER: transepithelial transport of tacrolimus (apical to basal) (Tacrolimus: 1.38-1.48uM) in MDR1-expressing LLC-GA5-COL150 cell; assay type: functional, cell-based; conditions: pig

T1 sequence (P08183 whole entry): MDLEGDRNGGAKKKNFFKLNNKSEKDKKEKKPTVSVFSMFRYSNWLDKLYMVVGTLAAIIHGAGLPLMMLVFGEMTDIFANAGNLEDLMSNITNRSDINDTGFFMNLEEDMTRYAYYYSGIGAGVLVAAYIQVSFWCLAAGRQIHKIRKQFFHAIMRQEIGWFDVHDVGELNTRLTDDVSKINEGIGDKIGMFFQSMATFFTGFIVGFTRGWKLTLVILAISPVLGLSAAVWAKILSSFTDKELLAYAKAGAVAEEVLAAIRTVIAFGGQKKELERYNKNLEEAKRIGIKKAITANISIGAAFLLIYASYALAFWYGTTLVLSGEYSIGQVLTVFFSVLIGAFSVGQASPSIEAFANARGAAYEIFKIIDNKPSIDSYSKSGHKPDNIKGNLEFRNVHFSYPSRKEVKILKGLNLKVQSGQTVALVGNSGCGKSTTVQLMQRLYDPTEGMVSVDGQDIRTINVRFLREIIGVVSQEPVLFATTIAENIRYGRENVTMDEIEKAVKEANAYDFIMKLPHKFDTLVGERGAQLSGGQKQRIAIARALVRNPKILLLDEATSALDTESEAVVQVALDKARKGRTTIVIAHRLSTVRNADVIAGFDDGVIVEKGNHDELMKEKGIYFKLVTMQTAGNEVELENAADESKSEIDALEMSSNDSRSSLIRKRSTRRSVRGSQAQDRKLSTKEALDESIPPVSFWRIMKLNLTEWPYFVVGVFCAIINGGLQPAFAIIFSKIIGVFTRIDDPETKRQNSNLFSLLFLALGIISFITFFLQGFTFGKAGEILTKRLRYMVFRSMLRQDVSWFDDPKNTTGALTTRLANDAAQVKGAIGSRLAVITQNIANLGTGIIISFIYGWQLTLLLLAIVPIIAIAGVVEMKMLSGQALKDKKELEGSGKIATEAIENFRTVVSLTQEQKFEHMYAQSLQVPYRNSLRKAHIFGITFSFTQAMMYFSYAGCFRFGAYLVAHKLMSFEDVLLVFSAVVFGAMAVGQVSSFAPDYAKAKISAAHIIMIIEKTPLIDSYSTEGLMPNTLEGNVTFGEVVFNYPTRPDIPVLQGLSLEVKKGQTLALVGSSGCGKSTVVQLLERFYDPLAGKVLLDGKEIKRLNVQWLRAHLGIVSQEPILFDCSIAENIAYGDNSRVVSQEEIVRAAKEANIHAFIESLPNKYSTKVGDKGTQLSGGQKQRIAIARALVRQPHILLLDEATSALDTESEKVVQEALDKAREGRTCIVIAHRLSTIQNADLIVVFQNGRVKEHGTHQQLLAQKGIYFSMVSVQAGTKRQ

| Activity [1] | Activity [2] | Compound |
| --- | --- | --- |
| inhibitor [+] |  | CC[C@H]1OC(=O)[C@H](C)[C@@H](O[C@H]2C[C@@](C)(OC)[C@@H](O)[C@H](C)O2)[C@H](C)[C@@H](O[C@@H]2O[C@H](C)C[C@H](N(C)C)[C@H]2O)[C@](C)(OC)C[C@@H](C)C(=O)[C@H](C)[C@@H](O)[C@]1(C)O [CLARITHROMYCIN] |
| inhibitor [+] | inhibitor [+] | BANPEIYU |
| inhibitor [+] | inhibitor [+] | GRAPEFRUIT JUICE |

From ChEMBL document CHEMBL2073837, “Inhibitory effects of pomelo on the metabolism of tacrolimus and the activities of CYP3A4 and P-glycoprotein” (Drug Metab Dispos, 2004)
